The target in the assay is T1, CqsR-LBD (Vibrio cholerae, UniProt Q9KR16).
T1 construct: gene VC_1831; pET28B His6 tag kept; E. coli BL21(DE3)
Briefly: differential scanning fluorimetry (SYPRO Orange). The following applies: 10 mM ligand; 10 μM protein; PBS pH 7.5, 10% glycerol; Tm without ligand 46 °C. It is filed as binding. The source says:
differential scanning fluorimetry (SYPRO Orange) on CqsR-LBD
(In general: In DSF a fluorescence change marks the thermal transition of the protein.)

As for `NC(CO)CO` [Serinol, 2-Amino-1,3-propanediol], the “Tm (°C)^b” value was 53.67 [0.58].
Then `C[C@H](N)CO` [L-alaninol, (S)-(+)-2-Amino-1-propanol], with 60 °C.
